Reference: patent publication US7553506B2, “Herbal compositions for prevention and treatment of rheumatic and inflammatory diseases and method of preparing the same” (Shenzhen Qianrenren Sci. & Tech. Development Co., priority 2004, dated 2009)

Tests used:
rheumatoid arthritis = conditions: general statement on RA therapy; cited from earlier work
[1] = tested on: Outpatients with active rheumatoid arthritis; test: Clinical study of Anti-Rheumatoid Arthritis Liquor (ARL) versus active control (MTX combination); format: in vivo, human; conditions: for number of patients with 50% improvement (R50) / number of patients with 75% improvement (R75) / number of patients with 100% improvement (R100) / % of patients with 50% improvement (R50) / % of patients with 75% improvement (R75) / % of patients with 100% improvement (R100): 20 patients per group
Experimental: Outpatients with active rheumatoid arthritis, according to the classification criteria of the American Arthritis College, without other significant medical conditions were recruited. 40 patients were recruited, 7 male and 33 female. Their ages were ranged from 28-67 years old with average of 46.8 years old. The disease duration of the patients ranged from 0.4 to 13 years.
[…] Observe group, 20 patients, was treated with ARL (30 ml/d). It was taken before sleep or equally divided to be taken in the morning and evening.
The outcome measurements for the both groups were divided to signs and symptoms, including: rest pain assessment, duration of morning stiffness, number of tender joint and the index of tenderness, number of swelling joints and the swelling index, grip strength, joint function, erythrocyte sedimentation rate, C reaction protein, and rheumatoid factor. The individual parameter improvement was calculated through the following formula:
The total improvement was used to compare the efficacy between the two groups. In order to accurately reflect the drug efficacy, 50% improvement, 75% improvement, and 100% improvement (R50, R75 and R100) were used as statistical endpoint for efficacy.

[2] = tested on: Outpatients with active rheumatoid arthritis; test: Clinical study of Anti-Rheumatoid Arthritis Capsule (ARC) versus active control (MTX combination); conditions: for % of patients with 50% improvement (R50) / number of patients with 50% improvement (R50) / number of patients with 75% improvement (R75) / number of patients with 100% improvement (R100) / % of patients with 75% improvement (R75): 18 patients per group
Experimental: Anti-Rheumatoid Arthritis Capsule (ARC) is a capsule made of the powder form of the herbal composition of the present invention in accordance with the components and method shown in Example 1. To assess the basic efficacy and side effect of ARC, an open, randomized and active controlled clinical trial was carried out.
Outpatients with active rheumatoid arthritis, according to the classification criteria of the American Arthritis College, without other significant medical conditions were recruited. […] Safety and compliance were monitored every 2 weeks with complete outcome evaluation at 4, 8, and 12 weeks.
Thirty-six (36) typical active RA patients were selected and randomly divided into two groups. Observe group, 18 patients, was treated with ARC (4 capsules t.i.d., each capsule is about 0.3 g).
The improvement was denoted as either R50, R75 or R100 reflecting either an improvement to the 50%, 75%, or 100% level in the parameters based on the improvements of signs and symptoms including rest pain assessment, duration of morning stiffness, number of tender joint and the index of tenderness, number of swelling joints and the swelling index, grip strength, joint function, erythrocyte sedimentation rate, C reaction protein, and rheumatoid factor.

[3] = 26 weeks, listed as combination of oral MTX and NSAID
[4] = 52 weeks, listed as combination of oral MTX and NSAID
[5] = 12 weeks, listed as active control

CN(Cc1cnc2nc(N)nc(N)c2n1)c1ccc(C(=O)N[C@@H](CCC(=O)O)C(=O)O)cc1 [MTX, Methotrexate]
time usually required to show some clinical effect (rheumatoid arthritis): 12-24 weeks | time required to reach R50 [1]: 8-12 weeks | time required to reach R75 [1]: 20-32 weeks | time required to reach R100 [1]: 52 weeks | number of patients with 50% improvement (R50) ([1]; 4 weeks): 0 | number of patients with 75% improvement (R75) ([1]; 4 weeks): 0 | number of patients with 100% improvement (R100) ([1]; 4 weeks): 0 | number of patients with 50% improvement (R50) ([1]; 8 weeks): 0 | number of patients with 75% improvement (R75) ([1]; 8 weeks): 0 | number of patients with 100% improvement (R100) ([1]; 8 weeks): 0 | % of patients with 50% improvement (R50) ([1]; 12 weeks): (45) % | number of patients with 50% improvement (R50) ([1]; 12 weeks): 9 | number of patients with 75% improvement (R75) ([1]; 12 weeks): 0 | number of patients with 100% improvement (R100) ([1]; 12 weeks): 0 | % of patients with 50% improvement (R50) ([1]; 12 weeks, listed as combination of oral MTX and NSAID): 45% | % of patients with 50% improvement (R50) ([1]; 26 weeks): (40) % | % of patients with 75% improvement (R75) ([1]; 26 weeks): (50) % | number of patients with 50% improvement (R50) ([1]; 26 weeks): 8 | number of patients with 75% improvement (R75) ([1]; 26 weeks): 10 | number of patients with 100% improvement (R100) ([1]; 26 weeks): 0 | % of patients with 50% improvement (R50) [1, 3]: 40% | % of patients with 75% improvement (R75) [1, 3]: 50% | % of patients with 75% improvement (R75) ([1]; 52 weeks): (75) % | % of patients with 100% improvement (R100) ([1]; 52 weeks): (25) % | number of patients with 50% improvement (R50) ([1]; 52 weeks): 0 | number of patients with 75% improvement (R75) ([1]; 52 weeks): 15 | number of patients with 100% improvement (R100) ([1]; 52 weeks): 5 | % of patients with 75% improvement (R75) [1, 4]: 75% | % of patients with 100% improvement (R100) [1, 4]: 25% | Time Required for Improvement, R50 ([1]; Table 5, value ± spread): 15.2 ± 5.43 week | Time Required for Improvement, R75 ([1]; Table 5, value ± spread): 27.7 ± 10.5 week | Time Required for Improvement, R100 ([1]; Table 5, value ± spread): 47.2 ± 10.7 week | % of patients with 50% improvement (R50) ([2]; 4 weeks): (11.1) % | number of patients with 50% improvement (R50) ([2]; 4 weeks): 2 | number of patients with 75% improvement (R75) ([2]; 4 weeks): 0 | number of patients with 100% improvement (R100) ([2]; 4 weeks): 0 | % of patients with 50% improvement (R50) ([2]; 4 weeks, listed as active control): 11.1% | % of patients with 50% improvement (R50) ([2]; 8 weeks): (11.1) % | number of patients with 50% improvement (R50) ([2]; 8 weeks): 2 | number of patients with 75% improvement (R75) ([2]; 8 weeks): 0 | number of patients with 100% improvement (R100) ([2]; 8 weeks): 0 | % of patients with 50% improvement (R50) ([2]; 8 weeks, listed as active control): 11.1% | patients who complained about stomachalgia ([2]; 12 weeks observation, 18 patients): 3 patients | % of patients with 50% improvement (R50) ([2]; 12 weeks): (55.5) % | % of patients with 75% improvement (R75) ([2]; 12 weeks): (11.1) % | number of patients with 50% improvement (R50) ([2]; 12 weeks): 10 | number of patients with 75% improvement (R75) ([2]; 12 weeks): 2 | % of patients with 50% improvement (R50) [2, 5]: 55.5% | % of patients with 75% improvement (R75) [2, 5]: 11.1%
